These results are taken from patent US20190338290A1, “TREATMENT OF SARCOMA” (MEMORIAL SLOAN KETTERING CANCER CENTER, priority 2017, published 2019).

The subject of the data set is SS18-SSX / KDM2B co-localization. In words: Proximity ligation assay (PLA) of SS18-SSX and KDM2B. The data set is classed as cell-based, human. The conditions noted are these: HS-SY-II cells, SS18-SSX knockdown. The method, then: Indicated synovial sarcoma cell lines were seeded at 3×10^4 cells/well in culture treated 8-well chamber slides and treated as previously described (Laporte et al., 2016). Primary antibodies for PLA were used at 1/1000 dilution: SS18 (Santa-Cruz Biotechnologies, sc-28698), KDM2B (Abnova, H00084678-M09), HA (Santa-Cruz Biotechnologies, sc-805). Proximity ligation was performed utilizing the Duolink® In Situ Red Starter Kit Mouse/Rabbit (Sigma-Aldrich, DUP92101-1KT) according to the manufacturer's protocol. Fluorescence was detected using a Zeiss Axioplan2 microscope at 40×. Images were quantified in triplicate using ImageJ software (NIH) as foci per nucleus, defined as the number of interaction points counted per nucleus. For PLA analysis upon SS18-SSX knockdown, duplex oligo (sense, […]; antisense, […]) SS18-SSX siRNAs were designed to target the SSX portion of SS18-SSX using the Integrated. DNA Technologies RNA interference (RNAi) design tool, and synthesized by Integrated DNA Technologies (IDT) as previously described (Lubieniecka et al., 2008). HS-SY-II cells were seeded in 6-well plates. At 60% confluence, cells were transfected with 50 pmol siSS18-SSX and 9 μL Lipofectamine RNAiMAX transfection reagent (Invitrogen) in Opti-MEM serum free media (Life Technologies). […]

With “SSX targeting siRNA: duplex oligo siRNA (sense CAAGAAGCCAGCAGAGGAATT; antisense UUCCUCUGCUGGCUUCUUGTT) designed to target the SSX portion of SS18-SSX (chemistry not given here)”, the “PLA signal (SS18 and KDM2B antibodies)” value was “abolished”.
